Active and inactive are the calls of the source.
What was measured:
HCT-116 [1] = assay: Antiproliferative activity against human HCT-116 cells assessed as inhibition of cell growth incubated for 48 hrs by EdU staining method; type: functional, cell-based
HCT-116 [2] = assay: Antitumor activity against human HCT-116 cells xenografted in BALB/c mouse assessed as downregulation of FAK phosphorylation in tumor at 10 mg/kg,ip administrated for 2 weeks by Western blotting analysis; type: functional, organism-based
[3] = Toxicity in BALB/c mouse xenografted with human HCT-116 cells assessed as change in serum ALT level at 10 mg/kg,ip administrated for 2 weeks; type: organism-based; details: in vivo, 336 h
RKO [4] = assay: cells; details: Homo sapiens, 48 h
Description: Antiproliferative activity against human RKO cells assessed as inhibition of cell growth incubated for 48 hrs by MTT assay

[5] = molecular target: Fibroblast growth factor receptor 3 (Homo sapiens, UniProt P22607); assay: Inhibition of FGFR3 (unknown origin) kinase activity
Fibroblast growth factor receptor 3, sequence (P22607 whole entry): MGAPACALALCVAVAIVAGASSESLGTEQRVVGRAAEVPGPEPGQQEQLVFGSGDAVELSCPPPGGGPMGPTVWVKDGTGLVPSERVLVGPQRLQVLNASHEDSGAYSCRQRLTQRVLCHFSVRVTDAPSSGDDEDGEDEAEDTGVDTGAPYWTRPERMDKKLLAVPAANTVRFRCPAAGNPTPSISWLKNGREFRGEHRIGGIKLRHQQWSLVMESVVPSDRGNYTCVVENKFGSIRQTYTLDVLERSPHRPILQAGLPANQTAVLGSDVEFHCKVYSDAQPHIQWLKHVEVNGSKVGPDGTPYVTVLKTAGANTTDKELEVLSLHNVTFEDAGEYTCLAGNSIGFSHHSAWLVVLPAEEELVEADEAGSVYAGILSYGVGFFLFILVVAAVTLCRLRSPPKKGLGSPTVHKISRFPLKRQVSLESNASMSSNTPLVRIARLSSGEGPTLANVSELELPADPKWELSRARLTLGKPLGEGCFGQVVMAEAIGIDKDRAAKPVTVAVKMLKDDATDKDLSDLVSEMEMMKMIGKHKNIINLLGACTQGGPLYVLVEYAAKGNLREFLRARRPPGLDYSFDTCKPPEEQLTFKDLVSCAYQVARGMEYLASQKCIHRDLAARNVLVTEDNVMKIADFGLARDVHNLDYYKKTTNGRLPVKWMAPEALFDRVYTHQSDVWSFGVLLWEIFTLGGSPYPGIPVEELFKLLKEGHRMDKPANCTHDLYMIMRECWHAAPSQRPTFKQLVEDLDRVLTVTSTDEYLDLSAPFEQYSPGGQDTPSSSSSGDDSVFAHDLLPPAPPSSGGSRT

HCT-116 [6] = assay: Antitumor activity against human HCT-116 cells xenografted in BALB/c mouse assessed as chromatin condensation at 10 mg/kg,ip administrated for 2 weeks by hematoxylin and eosin staining based analysis; type: functional, organism-based
[7] = Toxicity in ICR mouse assessed as histopathological change in kidney at 20 mg/kg,po administrated for 1 week by hematoxylin and eosin staining analysis; type: organism-based; details: in vivo, 168 h, time 1 weeks
HCT-116 [8] = assay: Antitumor activity against human HCT-116 cells xenografted in BALB/c mouse assessed as tumor growth inhibition at 20 mg/kg,ip administrated for 2 weeks relative to control; type: functional; details: HCT-116, 336 h, read-out: TGI
HCT-116 [9] = assay: Antitumor activity against human HCT-116 cells xenografted in BALB/c mouse assessed as downregulation of N-cad expression in tumor at 10 mg/kg,ip administrated for 2 weeks by Western blotting analysis; type: functional, organism-based
RKO [10] = assay: Anti-migration activity in human RKO cells assessed as change in N-cad expression at 3 to 12 uM by Western blotting analysis; type: functional, cell-based; details: dose 3-12 µM
[11] = Toxicity in BALB/c mouse xenografted with human HCT-116 cells assessed as change in serum AST level at 10 mg/kg,ip administrated for 2 weeks; type: organism-based; details: in vivo, 336 h
SW480 [12] = assay: Antiproliferative activity against human SW480 cells assessed as inhibition of cell growth incubated for 48 hrs by EdU staining method; type: functional, cell-based
[13] = Toxicity in BALB/c mouse xenografted with human HCT-116 cells assessed as histopathological change in liver at 10 mg/kg,ip administrated for 2 weeks by hematoxylin and eosin staining based analysis; type: organism-based; details: in vivo, 336 h
HCT-116 [14] = assay: Anti-migration activity in human HCT-116 cells assessed as change in FAK expression at 3 to 12 uM by Western blotting analysis; type: functional, cell-based; details: dose 3-12 µM
[15] = molecular target: Fibroblast growth factor receptor 2 (Homo sapiens, UniProt P21802); assay: Inhibition of FGFR2 (unknown origin) kinase activity
Fibroblast growth factor receptor 2, sequence (P21802 whole entry): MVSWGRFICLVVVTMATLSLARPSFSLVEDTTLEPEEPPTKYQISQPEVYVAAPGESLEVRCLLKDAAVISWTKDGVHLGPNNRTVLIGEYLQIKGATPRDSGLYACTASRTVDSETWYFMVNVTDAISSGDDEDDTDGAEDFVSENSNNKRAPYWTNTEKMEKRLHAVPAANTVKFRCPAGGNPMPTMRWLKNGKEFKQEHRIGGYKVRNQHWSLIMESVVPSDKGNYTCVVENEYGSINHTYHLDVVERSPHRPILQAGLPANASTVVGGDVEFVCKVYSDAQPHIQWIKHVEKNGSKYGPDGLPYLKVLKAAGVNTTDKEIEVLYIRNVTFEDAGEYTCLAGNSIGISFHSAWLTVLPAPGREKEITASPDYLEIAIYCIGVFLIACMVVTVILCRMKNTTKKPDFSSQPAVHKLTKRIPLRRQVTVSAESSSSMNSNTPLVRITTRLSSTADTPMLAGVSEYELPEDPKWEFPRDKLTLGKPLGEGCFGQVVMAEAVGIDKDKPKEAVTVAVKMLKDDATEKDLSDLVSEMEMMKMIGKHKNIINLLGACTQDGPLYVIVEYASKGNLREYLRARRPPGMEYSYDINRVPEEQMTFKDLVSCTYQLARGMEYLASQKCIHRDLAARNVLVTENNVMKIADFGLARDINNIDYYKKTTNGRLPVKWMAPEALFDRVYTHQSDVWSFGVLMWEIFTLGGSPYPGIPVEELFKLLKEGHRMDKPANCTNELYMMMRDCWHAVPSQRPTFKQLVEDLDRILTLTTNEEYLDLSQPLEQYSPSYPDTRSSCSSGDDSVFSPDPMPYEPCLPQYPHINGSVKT

HCT-116 [16] = assay: Antitumor activity against human HCT-116 cells xenografted in BALB/c mouse assessed as decrease in E-Cad expression in tumor tissue at ip administrated for 2 weeks by immunohistochemical analysis; type: functional, organism-based
RKO [17] = assay: Anti-migration activity in human RKO cells assessed as upregulation of E-cad expression by Western blotting analysis; type: functional, cell-based
[18] = molecular target: Fibroblast growth factor receptor 1 (Homo sapiens, UniProt P11362); assay: Inhibition of FGFR1 (unknown origin) kinase activity
Fibroblast growth factor receptor 1, sequence (P11362 whole entry): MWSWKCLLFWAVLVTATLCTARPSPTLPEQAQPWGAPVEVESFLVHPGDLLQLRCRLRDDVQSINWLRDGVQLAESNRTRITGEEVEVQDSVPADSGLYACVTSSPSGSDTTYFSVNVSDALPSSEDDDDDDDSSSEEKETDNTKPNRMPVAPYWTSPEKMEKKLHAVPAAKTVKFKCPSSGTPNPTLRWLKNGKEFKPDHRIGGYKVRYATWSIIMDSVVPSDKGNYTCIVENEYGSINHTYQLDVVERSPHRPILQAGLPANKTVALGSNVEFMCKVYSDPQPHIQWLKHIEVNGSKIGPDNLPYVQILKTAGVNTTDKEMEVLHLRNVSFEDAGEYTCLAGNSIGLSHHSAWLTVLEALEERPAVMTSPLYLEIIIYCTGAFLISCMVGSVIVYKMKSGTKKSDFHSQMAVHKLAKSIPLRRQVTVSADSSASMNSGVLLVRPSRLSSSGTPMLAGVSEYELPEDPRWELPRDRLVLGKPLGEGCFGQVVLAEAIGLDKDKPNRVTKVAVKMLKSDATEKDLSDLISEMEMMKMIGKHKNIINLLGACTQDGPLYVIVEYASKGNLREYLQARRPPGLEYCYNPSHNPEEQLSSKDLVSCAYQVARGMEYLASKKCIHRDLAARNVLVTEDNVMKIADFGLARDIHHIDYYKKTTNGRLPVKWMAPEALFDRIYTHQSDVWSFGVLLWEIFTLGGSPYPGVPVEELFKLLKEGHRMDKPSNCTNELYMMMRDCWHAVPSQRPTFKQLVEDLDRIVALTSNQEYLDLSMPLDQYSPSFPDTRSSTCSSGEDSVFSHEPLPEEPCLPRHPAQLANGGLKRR

[19] = Toxicity in BALB/c mouse xenografted with human HCT-116 cells assessed as change in serum AST level at 20 mg/kg,ip administrated for 2 weeks; type: organism-based; details: in vivo, 336 h
[20] = Toxicity in BALB/c mouse xenografted with human HCT-116 cells assessed as change in liver weight at 10 mg/kg,ip administrated for 2 weeks; type: organism-based; details: in vivo, 336 h
[21] = Toxicity in BALB/c mouse xenografted with human HCT-116 cells assessed as change in heart weight at 10 mg/kg,ip administrated for 2 weeks; type: organism-based; details: in vivo, 336 h
HCT-116 [22] = assay: Antitumor activity against human HCT-116 cells xenografted in BALB/c mouse assessed as chromatin condensation at 20 mg/kg,ip administrated for 2 weeks by hematoxylin and eosin staining based analysis; type: functional, organism-based
RKO [23] = assay: Antiproliferative activity against human RKO cells assessed as inhibition of colony formation incubated for 2 weeks by crystal violet staining method; type: functional, cell-based
HCT-116 [24] = assay: Antitumor activity against human HCT-116 cells xenografted in BALB/c mouse assessed as downregulation of FGFR4 signalling pathway in tumor at 20 mg/kg,ip administrated for 2 weeks by Western blotting analysis; type: functional, organism-based
HCT-116 [25] = assay: Antitumor activity against human HCT-116 cells xenografted in BALB/c mouse assessed as change in cell morphology at 20 mg/kg,ip administrated for 2 weeks by hematoxylin and eosin staining based analysis; type: functional, organism-based
[26] = Toxicity in BALB/c mouse xenografted with human HCT-116 cells assessed as histopathological change in kidney at 20 mg/kg,ip administrated for 2 weeks by hematoxylin and eosin staining based analysis; type: organism-based; details: in vivo, 336 h
[27] = Toxicity in BALB/c mouse xenografted with human HCT-116 cells assessed as change in serum creatinine level at 10 mg/kg,ip administrated for 2 weeks; type: organism-based; details: in vivo, 336 h
[28] = Toxicity in ICR mouse assessed as histopathological change in liver at 60 mg/kg,po administrated for 1 week by hematoxylin and eosin staining analysis; type: organism-based; details: in vivo, 168 h, time 1 weeks
RKO [29] = assay: Anti-migration activity in human RKO cells assessed as downregulation of FAK phosphorylation by Western blotting analysis; type: functional, cell-based
RKO [30] = assay: Antiproliferative activity against human RKO cells assessed as inhibition of cell growth incubated for 48 hrs by EdU staining method; type: functional, cell-based
RKO [31] = assay: Induction of apoptosis in human RKO cells assessed as downregulation of ratio of Bcl-2/Bax expression at 3 to 12 uM incubated for 48 hrs by Western blotting analysis; type: functional, cell-based; details: dose 3-12 µM
[32] = Toxicity in ICR mouse assessed as change in kidney weight at 20 mg/kg,po administrated for 1 week; type: organism-based; details: in vivo, 168 h, time 1 weeks
HCT-116 [33] = assay: Anti-migration activity in human HCT-116 cells assessed as change in FAK distribution at 3 to 12 uM by immunofluorescence assay; type: functional, cell-based; details: dose 3-12 µM
SW480 [34] = assay: Anti-migration activity in human SW480 cells assessed as downregulation of FAK phosphorylation by Western blotting analysis; type: functional, cell-based
RKO [35] = assay: Anti-migration activity in human RKO cells assessed as change in FAK expression at 3 to 12 uM by Western blotting analysis; type: functional, cell-based; details: dose 3-12 µM
[36] = Toxicity in BALB/c mouse xenografted with human HCT-116 cells assessed as change in kidney weight at 20 mg/kg,ip administrated for 2 weeks; type: organism-based; details: in vivo, 336 h
HCT-116 [37] = assay: Induction of apoptosis in human HCT-116 cells at 3 to 12 uM incubated for 48 hrs by Annexin V-FITC/PI staining based flow cytometric analysis relative to control; type: functional; details: dose 3-12 µM
HCT-116 [38] = assay: Anti-migration activity in human HCT-116 cells assessed as upregulation of E-cad expression by Western blotting analysis; type: functional, cell-based
HCT-116 [39] = assay: Induction of cell cycle arrest in human HCT-116 cells assessed as downregulation of CDC2 expression at 1.5 to 6 uM by immunoblotting analysis; type: functional, cell-based; details: dose 1.5-6 µM
[40] = Toxicity in BALB/c mouse xenografted with human HCT-116 cells assessed as change in heart weight at 20 mg/kg,ip administrated for 2 weeks; type: organism-based; details: in vivo, 336 h

C=CC(=O)NCCCn1c(=O)c(-c2c(Cl)c(OC)cc(OC)c2Cl)cc2cnc(Nc3c(C)cccc3NC(=O)C=C)cc21
0.64%: Activity (HCT-116 [37])
528 nM: IC50 [15]
inactive: Activity (RKO [10]) | Activity (HCT-116 [14]) | Activity (RKO [35])
70.5%: inhibition in vivo at 20 mg/kg (HCT-116 [8])
643 nM: IC50 [18]
active: Activity (HCT-116 [1]) Dose-Dependent Effect | Activity (HCT-116 [2]) | Activity (HCT-116 [6]) | Activity (HCT-116 [9]) | Activity (SW480 [12]) Dose-Dependent Effect | Activity (HCT-116 [16]) Dose-Dependent Effect | Activity (RKO [17]) Dose-Dependent Effect | Activity (HCT-116 [22]) | Activity (RKO [23]) Dose-Dependent Effect | Activity (HCT-116 [24]) | Activity (HCT-116 [25]) | Activity (RKO [29]) Dose-Dependent Effect | Activity (RKO [30]) Dose-Dependent Effect | Activity (RKO [31]) | Activity (HCT-116 [33]) | Activity (SW480 [34]) Dose-Dependent Effect | Activity (HCT-116 [38]) Dose-Dependent Effect | Activity (HCT-116 [39])
Non-Toxic: Activity [3] | Activity [7] | Activity [11] | Activity [13] | Activity [19] | Activity [20] | Activity [21] | Activity [26] | Activity [27] | Activity [28] | Activity [32] | Activity [36] | Activity [40]
11600 nM: IC50 (RKO [4])
225 nM: IC50 [5]

Source: ChEMBL document CHEMBL5625222, “Design, synthesis, and biological evaluation of 1,6-naphthyridine-2-one derivatives as novel FGFR4 inhibitors for the treatment of colorectal cancer” (Eur J Med Chem, 2023)
